Laboratory results taken from publication PMC6727846 (Journal of medicinal chemistry, 2019).
Like-named read-outs stand apart in the source and are kept apart here. Each block holds one compound with its values, some of them ahead of it.

Tests used:
[1] = Mouse liver microsome metabolic stability; details: in words
[2] = tested on: Plasmodium falciparum 3D7 (CQ-sensitive); assay: In vitro antimalarial SYBR Green I fluorescence assay; type: cell-based; details: for effect of substitution on Pf 3D7 potency, in words: SAR statement in text
[3] = biological target: PM-X (Plasmodium falciparum, UniProt Q8IAS0); type: cell-based; details: western blot, substrate processing; data not shown
[4] = biological target: Pf PM-V (Plasmodium falciparum, UniProt Q8I6Z5); type: cell-based; details: knockdown assay; data not shown
[5] = biological target: T1, PM-IX (Plasmodium falciparum, UniProt Q8ILG2); type: cell-based; details: western blot, substrate processing; data not shown
T1 sequence (Q8ILG2 1-627): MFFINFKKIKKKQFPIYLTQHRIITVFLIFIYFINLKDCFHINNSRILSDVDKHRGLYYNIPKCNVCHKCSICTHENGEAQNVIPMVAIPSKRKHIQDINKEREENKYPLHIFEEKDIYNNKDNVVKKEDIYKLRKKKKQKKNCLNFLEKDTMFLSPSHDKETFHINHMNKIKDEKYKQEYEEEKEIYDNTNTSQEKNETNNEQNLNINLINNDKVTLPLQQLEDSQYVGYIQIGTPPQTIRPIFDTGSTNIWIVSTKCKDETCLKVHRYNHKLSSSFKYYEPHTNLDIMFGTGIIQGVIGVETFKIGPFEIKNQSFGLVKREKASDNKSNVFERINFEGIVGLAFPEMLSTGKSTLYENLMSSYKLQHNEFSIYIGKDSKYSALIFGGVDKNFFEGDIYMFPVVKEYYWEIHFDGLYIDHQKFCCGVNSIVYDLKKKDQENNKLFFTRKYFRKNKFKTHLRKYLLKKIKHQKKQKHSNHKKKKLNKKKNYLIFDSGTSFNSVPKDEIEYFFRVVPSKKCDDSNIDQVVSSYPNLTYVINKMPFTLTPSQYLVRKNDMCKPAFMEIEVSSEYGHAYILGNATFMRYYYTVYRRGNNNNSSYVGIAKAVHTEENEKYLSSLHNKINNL

[6] = Cytotoxicity selectivity; type: cell-based
[7] = biological target: Pf plasmepsin II (PM-II) (Plasmodium falciparum, UniProt Q8I6V3); assay: biochemical
[8] = tested on: Plasmodium falciparum Dd2 (multi-drug resistant); assay: In vitro antimalarial SYBR Green I fluorescence assay; type: cell-based
[9] = Plasmodium falciparum, 3D7, 72 h, read-out: Pf 3D7 IC50
[10] = Plasmodium falciparum, 3D7, read-out: Pf 3D7 IC50 (side-by-side with CQ)

Chain of Pf plasmepsin II (PM-II) (Q8I6V3 125-453): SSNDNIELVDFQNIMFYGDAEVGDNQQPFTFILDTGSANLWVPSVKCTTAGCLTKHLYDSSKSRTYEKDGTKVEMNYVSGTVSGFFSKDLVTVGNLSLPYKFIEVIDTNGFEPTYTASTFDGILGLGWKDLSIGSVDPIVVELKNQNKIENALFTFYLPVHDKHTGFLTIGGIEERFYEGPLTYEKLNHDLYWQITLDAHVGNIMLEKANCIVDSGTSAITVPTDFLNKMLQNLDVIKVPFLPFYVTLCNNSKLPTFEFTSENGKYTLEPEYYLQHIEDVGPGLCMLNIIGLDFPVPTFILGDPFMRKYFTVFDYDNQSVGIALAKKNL
Chain of Pf PM-V (Q8I6Z5 whole entry): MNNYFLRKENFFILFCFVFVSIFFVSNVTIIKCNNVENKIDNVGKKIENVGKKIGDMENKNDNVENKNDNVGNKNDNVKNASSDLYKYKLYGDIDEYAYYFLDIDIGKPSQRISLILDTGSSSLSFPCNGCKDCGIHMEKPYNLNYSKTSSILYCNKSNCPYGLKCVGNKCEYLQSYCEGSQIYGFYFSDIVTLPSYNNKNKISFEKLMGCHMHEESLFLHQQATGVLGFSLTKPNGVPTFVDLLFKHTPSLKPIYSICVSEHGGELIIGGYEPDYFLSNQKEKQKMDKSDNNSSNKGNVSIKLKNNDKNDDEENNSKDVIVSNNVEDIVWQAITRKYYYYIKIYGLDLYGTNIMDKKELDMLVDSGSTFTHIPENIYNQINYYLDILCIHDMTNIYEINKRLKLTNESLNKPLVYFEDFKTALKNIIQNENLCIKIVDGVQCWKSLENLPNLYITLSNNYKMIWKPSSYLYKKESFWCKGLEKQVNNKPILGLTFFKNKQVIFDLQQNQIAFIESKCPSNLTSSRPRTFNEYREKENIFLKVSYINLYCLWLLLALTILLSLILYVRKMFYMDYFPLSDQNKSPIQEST
Chain of PM-X (Q8IAS0 222-573): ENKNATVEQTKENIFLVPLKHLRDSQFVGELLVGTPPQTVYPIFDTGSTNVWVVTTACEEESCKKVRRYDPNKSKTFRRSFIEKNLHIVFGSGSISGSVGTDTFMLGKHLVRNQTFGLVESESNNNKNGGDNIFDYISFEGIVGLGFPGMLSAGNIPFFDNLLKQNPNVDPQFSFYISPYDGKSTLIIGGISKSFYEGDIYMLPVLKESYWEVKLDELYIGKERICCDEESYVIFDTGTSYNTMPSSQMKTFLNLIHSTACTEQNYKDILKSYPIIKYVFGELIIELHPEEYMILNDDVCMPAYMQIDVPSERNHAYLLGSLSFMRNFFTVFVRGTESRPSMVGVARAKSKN

Structure (SMILES): COc1ccc(CNC(=O)[C@@H]2CNC[C@H]2c2ccc(C(F)(F)F)cc2)cc1 (racemic) [compound 6]
- metabolic stability profile in mouse liver microsomes [1]: improved
- increase in potency relative to H (13) ([2]; Pf 3D7, amide benzyl ring SAR): 10 fold
- IC50 [2, 9]: 385 nM
- inhibition of PM-X [3]: inactive
- inhibition of Pf PM-V [4]: inactive
- inhibition of PM-IX [5]: inactive
- selectivity ratio [6]: 100

Structure (SMILES): CN(C)c1ccc(CNC(=O)[C@H]2CNC[C@@H]2c2ccc(C(F)(F)F)nc2)cc1 (racemic) [compound 34]
- IC50 [2, 9]: 230 nM
- effect of substitution on Pf 3D7 potency, in words [2]: without loss in potency
- IC50 [7]: > 10000 nM

Structure (SMILES): C[C@H](NC(=O)[C@H]1CNC[C@@H]1c1ccc(C(F)(F)F)cc1)c1ccc(N(C)C)cc1 [54b, (+)-(3R,4S)-N-[(1S)-1-[4-(dimethylamino)phenyl]ethyl]-4-[4-(trifluoromethyl)phenyl]pyrrolidine-3-carboxamide]
- IC50 [2, 9]: 51 nM
- EC50 ([2]; Plasmodium falciparum, 3D7, read-out: EC50 against drug sensitive Plasmodium falciparum 3D7): 46 nM
- IC50 [2, 10]: 46 ± 6 nM
- EC50 ([8]; DD2, read-out: EC50 against drug resistant Dd2 strain): 21 nM

Structure (SMILES): C[C@@H]1CC[C@H]2[C@@H](C)C(=O)O[C@@H]3O[C@@]4(C)CC[C@@H]1[C@]32OO4 [artemesinin, reference compound]
- IC50 [2, 9]: 33 ± 0.6 nM

Structure (SMILES): CCN(CC)CCCC(C)Nc1ccnc2cc(Cl)ccc12 (stereo not drawn) [chloroquine, reference compound]
- IC50 [2, 9]: 54 ± 0.4 nM
- IC50 [2, 10]: 38 ± 2 nM
- IC50 ([8]; DD2, read-out: Pf Dd2 IC50 (side-by-side with CQ)): 196 ± 14 nM

- IC50 [7]: > 10000 nM
Structure (SMILES): Cc1ccc(CNC(=O)[C@@H]2CNC[C@H]2c2ccc(C(F)(F)F)cc2)cc1 [compound 12]

- IC50 [7]: > 10000 nM
Structure (SMILES): CN(C)c1ccc(CNC(=O)[C@H]2CNC[C@@H]2c2ccc(C(F)(F)F)cc2)cc1 [compound 14]

- IC50 [7]: > 10000 nM
Structure (SMILES): CCN(CC)c1ccc(CNC(=O)[C@@H]2CNC[C@H]2c2ccc(C(F)(F)F)cc2)cc1 [compound 16]

- IC50 [7]: > 10000 nM
Structure (SMILES): CN(C)c1ccc(CNC(=O)[C@@H]2CNC[C@H]2c2ccc(C(F)(F)F)c(F)c2)cc1 [compound 24]

- IC50 [7]: > 10000 nM
Structure (SMILES): CN(C)c1ccc(CNC(=O)[C@@H]2CNC[C@H]2c2ccc(C(F)(F)F)c(Cl)c2)cc1 [compound 26]

Structure (SMILES): CN(C)c1ccc(CNC(=O)[C@@H]2CNC[C@H]2c2ccc(Oc3ccccc3)cc2)cc1 [compound 30]
- effect of substitution on Pf 3D7 potency, in words [2]: tolerated
- IC50 [7]: > 10000 nM

Structure (SMILES): CN(C)c1ccc(CNC(=O)[C@H]2CNC[C@@H]2c2cnc(C(F)(F)F)nc2)cc1 [compound 35]
- effect of substitution on Pf 3D7 potency, in words [2]: modest erosion of potency

Structure (SMILES): C[C@@H](NC(=O)[C@H]1CNC[C@@H]1c1ccc(C(F)(F)F)nc1)c1ccc(N(C)C)cc1 [compound 55, (+)-(3R,4S)-N-[(1R)-1-[4-(dimethylamino)phenyl]ethyl]-4-[6-(trifluoromethyl)pyridin-3-yl]pyrrolidine-3-carboxamide]
- reduction / loss in potency relative to parent analog ([2]; Pf 3D7, SAR comparison stated in text): > 30 fold
